One assay has as its target T1, E. coli topoisomerase IV (Escherichia coli, UniProt P0AFI2+P20083).
T1 construct: purchased Inspiralis, Norwich, UK
In words: E. coli topoisomerase IV relaxation assay. The format is biochemical. The method, then: (§1) The assay for determination of the IC50 values was performed according to previously reported procedures.
(§2) Briefly, inhibitory activities were determined using supercoiling (for DNA gyrase) and relaxation (for topoisomerase IV) assay kits (Inspiralis, Norwich, UK) on streptavidin-coated 96-well microtiter plates from Thermo Scientific Pierce (Thermo Fisher Scientific, Waltham, MA, USA). First, the plates were rehydrated with Wash Buffer and the biotinylated oligonucleotide TFO1 was then immobilized. After washing off the unbound oligonucleotide with Wash Buffer, the enzyme assay was performed. Into each well was added 24 µL of mixture containing 6 µL of Assay Buffer (containing ATP), 0.75 µL of relaxed (for E. coli DNA gyrase supercoiling assay) or supercoiled (for E. coli topoisomerase IV relaxation assay) pNO1 plasmid and 17.25 µL of water. Additionally, 3 µL of a solution of the inhibitor in 10% DMSO containing 0.008% Tween 20 and 3 µL of enzyme (1.5 U) in Dilution Buffer were also added to the wells. […] The TF buffer was added to terminate the enzymatic reaction and after additional incubation for 30 min at room temperature, which allowed for triplex formation (biotin–oligonucleotide–plasmid), the unbound plasmid was washed off using TF buffer. Promega Diamond dye in T10 buffer was then added. […] Here, the compounds were diluted using 2-fold serial dilution steps of the given compound. GraphPad Prism 6.0 software was used to calculate the IC50 values, which were determined in at least two independent measurements, and their means are given as the final result. […] Dose-response curves can be found in Supplementary Materials.

The test system of another assay is A. baumannii ATCC 17978. The experiment in a line: MIC broth microdilution, A. baumannii. The format is cell-based. Conditions: Acinetobacter baumannii, ATCC17978, read-out: MIC A. baumannii ATCC #. From the text:
(§3) E. coli MG1655 originated from the laboratory collection of Dr. Csaba Pál. […] E. coli K-12 BW25113 single-gene knockout mutant lines ΔdapF, ΔmrcB, ΔsurA, ΔacrB and ΔtolC originated form the Keio collection copy owned by the laboratory of Dr. Csaba Pál.
(§4) Cation-adjusted Mueller Hinton II broth (MHBII) was used for growth of the bacteria under standard laboratory conditions, for antimicrobial susceptibility tests, and for selection of resistant variants. To prepare the MHBII broth, 22 g MHBII powder (containing 3 g beef extract, 17.5 g acid hydrolysate of casein, 1.5 g starch; Becton, Dickinson and Co., Franklin Lakes, NJ, USA) was dissolved in 1 L water. MHBII agar was prepared by addition of 14 g agar (Bacto; Molar Chemicals, Halásztelek, Hungary) to 1 L broth.
(§5) Minimum inhibitory concentrations (MICs) were determined using a standard serial broth microdilution technique, according to the Clinical and Laboratory Standards Institute guidelines. […] For Enterococcus sp., the cells were plated in BHI agar plates, and BHI broth was used to determine the MICs. […] Following the dilutions, each well was seeded with 5 × 10^4 bacterial cells. Each measurement was performed in three parallel replicates, and to avoid possible edge effects in the microwell plates, the outside rows (A, H) were filled with sterile medium. Following the inoculations, the plates were covered with the lids and wrapped in polyethylene plastic bags, to minimize evaporation but to allow O2 transfer. […] After incubation, the OD600 of each well was measured using a microplate reader (Synergy 2; Biotek, Winooski, VT, USA).
For orientation: Dilution methods test growth across graded concentrations, often in twofold steps.

A further assay relates to P. aeruginosa ATCC 27863. The experiment in a line: MIC broth microdilution, P. aeruginosa. The format is cell-based. Conditions: Pseudomonas aeruginosa.
Description: as §3, §4, §5

A further assay relates to K. pneumoniae ATCC 10031. In words: MIC broth microdilution, K. pneumoniae. The format is cell-based. Conditions: Klebsiella pneumoniae, ATCC10031, read-out: MIC K. pneumoniae ATCC #.
Description: as §3, §4, §5

The test system of assay [1] is E. cloacae spp. cloacae ATCC 13047. The experiment in a line: MIC broth microdilution, E. cloacae. The format is cell-based, Enterobacter cloacae. The note with it: for MIC: Enterobacter cloacae, ATCC13047, read-out: MIC E. cloacae spp. cloacae ATCC #.
Another assay has as its system E. coli ATCC 25922. The experiment in a line: MIC broth microdilution, E. coli ATCC 25922. The class given is cell-based. The note with it: Escherichia coli, ATCC25922, read-out: MIC E. coli ATCC #.
Description: as §3, §4, §5

The target of a further assay is T2, E. coli DNA gyrase (Escherichia coli, UniProt P0AES4+P0AES6).
T2 construct: purchased Inspiralis, Norwich, UK
The experiment in a line: E. coli DNA gyrase supercoiling assay. The format is biochemical. The method, then: as §1, §2

In another assay the test system is E. coli BW25113 WT. In words: MIC, E. coli BW25113 wild-type. The format is cell-based. The note with it: Escherichia coli, BW25113, read-out: Minimum Inhibitory Concentration E. coli BW# WT.
Description: as §3, §4, §5

Another assay has as its system E. coli BW25113 ΔacrB. The format is cell-based, Escherichia coli.
Description: as §3, §4, §5

The subject of a further assay is E. coli BW25113 ΔdapF. The class given is cell-based, Escherichia coli.
Description: as §3, §4, §5

For another assay, the system named is E. coli BW25113 ΔmrcB. The class given is cell-based, Escherichia coli.
Description: as §3, §4, §5

Another assay deals with E. coli BW25113 ΔsurA. The class given is cell-based, Escherichia coli.
Description: as §3, §4, §5

Another assay relates to E. coli BW25113 ΔtolC. The format is cell-based, Escherichia coli.
Description: as §3, §4, §5

The test system of the next assay is E. coli MG1655 WT. The experiment in a line: MIC, E. coli MG1655 wild-type with PAβN. The class given is cell-based, Escherichia coli.
Description: as §3, §4
as §5, with “USA). […]” for “USA).”

Assay [2] concerns E. coli MG1655 GyrA S83L, D87N ParC S80I, E84G. The experiment in a line: microbe, parasite or virus in culture. The class given is cell-based, Escherichia coli.
Description: as §3, §4, §5
(§6) These mutated amino acids are the most common sites for target-based resistance in E. coli.

For assay [3], the system named is E. coli MG1655 GyrB R136C. The experiment in a line: microbe, parasite or virus in culture. The class given is cell-based, Escherichia coli.
Description: as §3, §4, §5, §6

[4] abbreviates: molar conversion in parentheses.
Setting [5] is: ATCC27863, 18 h, read-out: MIC P. aeruginosa ATCC #.
Setting [6] is: ATCC27863, read-out: MIC P. aeruginosa ATCC #, molar conversion in parentheses, read-out: MIC P. aeruginosa ATCC 27863.
Where [7] appears, read: in the presence of 50 µg/mL PAβN.

Read-outs that look alike come from different tables or passages of the source. Where only a bound is given, the exact number is not on record here.

By IC50 is commonly meant the concentration that gives 50% inhibition. A low value points to higher potency. `Cc1[nH]c(C(=O)Nc2nc3ccc(C(=O)O)cc3s2)c(Cl)c1Cl` [Compound 1a, 2-(3,4-dichloro-5-methyl-1H-pyrrole-2-carboxamido)benzo[d]thiazole-6-carboxylic acid, reference compound] gave an IC50 against E. coli topoisomerase IV of 500 ± 280 nM. Moreover, the MIC in the assay on A. baumannii ATCC 17978 (broth microdilution, 18 h) stood at 4 µg/mL; with A. baumannii ATCC 17978 (setting [4]) it was 10.8 µM; in the assay with P. aeruginosa ATCC 27863 (setting [5]), 8 µg/mL; in the assay on P. aeruginosa ATCC 27863 (setting [6]) it was 21.6 µM; in the assay with K. pneumoniae ATCC 10031 (broth microdilution, 18 h) it was 1 µg/mL; in the assay on K. pneumoniae ATCC 10031 (setting [4]), 2.7 µM. Further, the MIC is over 64 µg/mL in [1] (broth microdilution, 18 h); over 173 µM in [1] (setting [4]); 4 µg/mL in the assay with E. coli ATCC 25922 (broth microdilution, 18 h); 10.8 µM with E. coli ATCC 25922 (setting [4]). Also, the “Antibacterial activity against E. cloacae (in words)” value in [1] is “inactive”.

For the compound `Cc1[nH]c(C(=O)Nc2nc3c(OCc4ccccc4)cc(C(=O)O)cc3s2)c(Cl)c1Cl` [Compound 1b, reference compound], the MIC with A. baumannii ATCC 17978 (broth microdilution, 18 h) is 2 µg/mL; in the assay with A. baumannii ATCC 17978 (setting [4]), 4.2 µM; with P. aeruginosa ATCC 27863 (setting [5]) it was 2 µg/mL; in the assay on P. aeruginosa ATCC 27863 (setting [6]) it was 4.2 µM; in the assay with K. pneumoniae ATCC 10031 (broth microdilution, 18 h), 4 µg/mL; in the assay with K. pneumoniae ATCC 10031 (setting [4]) it was 8.4 µM. Besides, the MIC was over 64 µg/mL in assay [1] (broth microdilution, 18 h); over 134 µM in assay [1] (setting [4]); 16 µg/mL in the assay with E. coli ATCC 25922 (broth microdilution, 18 h); 33.6 µM with E. coli ATCC 25922 (setting [4]). The “Antibacterial activity against E. cloacae (in words)” value in assay [1] was “inactive”.

With `Cc1[nH]c(C(=O)Nc2nc3ccc(C(=O)NCC(=O)N4CCN(c5cc6c(cc5F)c(=O)c(C(=O)O)cn6C5CC5)CC4)cc3s2)c(Cl)c1Cl` [Compound 7a, 1-Cyclopropyl-7-(4-((2-(3,4-dichloro-5-methyl-1H-pyrrole-2-carboxamido)benzo[d]thiazole-6-carbonyl)glycyl)piperazin-1-yl)-6-fluoro-4-oxo-1,4-dihydroquinoline-3-carboxylic acid], the IC50 on E. coli DNA gyrase amounted to 92 ± 10 nM; against E. coli topoisomerase IV it was 2500 ± 1300 nM. In addition, the “Inhibition of topoisomerase IV (in words)” value at E. coli topoisomerase IV (relaxation assay) is “low micromolar”. The MIC is over 64 µg/mL in the assay on A. baumannii ATCC 17978 (broth microdilution, 18 h); over 86.4 µM in the assay with A. baumannii ATCC 17978 (setting [4]); over 64 µg/mL in the assay on P. aeruginosa ATCC 27863 (setting [5]); over 86.4 µM in the assay with P. aeruginosa ATCC 27863 (setting [6]); 4 µg/mL with K. pneumoniae ATCC 10031 (broth microdilution, 18 h); 5.4 µM in the assay with K. pneumoniae ATCC 10031 (setting [4]). Moreover, the MIC in [1] (broth microdilution, 18 h) was over 64 µg/mL; in [1] (setting [4]) it was over 86.4 µM; in the assay with E. coli ATCC 25922 (broth microdilution, 18 h), over 64 µg/mL; in the assay with E. coli ATCC 25922 (setting [4]) it was over 86.4 µM; with E. coli BW25113 WT (setting [4]), over 86.4 µM; with E. coli BW25113 WT (wild-type) it was over 64 µg/mL. In addition, the MIC with E. coli MG1655 WT (Escherichia coli, MG1655, read-out: Minimum Inhibitory Concentration E. coli MG# WT, 50 µg/mL PAβN, molar conversion in parentheses) was 1.35 µM; in assay [2] (Escherichia coli, MG1655, read-out: Minimum Inhibitory Concentration E. coli MG# GyrA S83L, D87N ParC S80I, E84G) it was 0.675 µM; in assay [3] (Escherichia coli, MG1655, read-out: Minimum Inhibitory Concentration E. coli MG# GyrB R#C), 2.7 µM. In addition, the “Minimum Inhibitory Concentration E. coli BW25113 ΔacrB” value with E. coli BW25113 ΔacrB (efflux pump mutant) is over 64 µg/mL; in the assay with E. coli BW25113 ΔacrB (setting [4]), “(>86.4 µM)”. The “Minimum Inhibitory Concentration E. coli BW25113 ΔdapF” value in the assay with E. coli BW25113 ΔdapF (impaired cell-wall mutant) was over 64 µg/mL; in the assay with E. coli BW25113 ΔdapF (setting [4]) it was “(>86.4 µM)”. Besides, the “Minimum Inhibitory Concentration E. coli BW25113 ΔmrcB” value in the assay on E. coli BW25113 ΔmrcB (impaired cell-wall mutant) is recorded as over 64 µg/mL; in the assay on E. coli BW25113 ΔmrcB (setting [4]) it was “(>86.4 µM)”. For the same compound, the figures for the “Minimum Inhibitory Concentration E. coli BW25113 ΔsurA” value in the assay with E. coli BW25113 ΔsurA (impaired cell-wall mutant) and with E. coli BW25113 ΔsurA (setting [4]) were over 64 µg/mL and “(>86.4 µM)”, respectively. In addition, the “Minimum Inhibitory Concentration E. coli BW25113 ΔtolC” value was 2 µg/mL in the assay on E. coli BW25113 ΔtolC (efflux pump mutant) and “(2.70 µM)” in the assay on E. coli BW25113 ΔtolC (setting [4]). The “MIC change, ΔtolC mutant versus wild-type E. coli BW25113” value in the assay with E. coli BW25113 ΔtolC (improvement of MIC in impaired efflux pump mutant) is on record as “above 32 fold”. Further, the “Minimum Inhibitory Concentration E. coli MG1655 WT” value in the assay with E. coli MG1655 WT (setting [7]) is listed as 1 µg/mL. Further, the “Minimum Inhibitory Concentration E. coli MG1655 GyrA S83L, D87N ParC S80I, E84G” value in [2] (setting [7]) is on record as 0.5 µg/mL. Moreover, in assay [3] (setting [7]), the “Minimum Inhibitory Concentration E. coli MG1655 GyrB R136C” value came to 2 µg/mL.

Source of the values: publication PMC7822030, “Hybrid Inhibitors of DNA Gyrase A and B: Design, Synthesis and Evaluation” (Pharmaceutics, 2020).
